According to patent US11957931B2, “Compositions and methods for treating vitiligo” (YALE UNIVERSITY, priority 2017, dated 2024):
Read-outs that look alike come from different tables or passages of the source. Marks after values point to notes of the source that are not given here.

Tests used:
patients with vitiligo [1] = assay: Retrospective case series of vitiligo patients treated with tofacitinib: BSA of depigmentation / repigmentation; type: in vivo, human; parameters: key to Responder Status: R, responder; NR, non-responder
From the text: (§3) This study is a retrospective case series of 10 patients seen between July 2014 and January 2017. […] Clinical and demographic information, including biological sex, age, disease duration and course, medical history, family history, and prior treatments were collected. Before initiating tofacitinib, all patients underwent baseline laboratory evaluation including comprehensive metabolic panel, complete blood cell count with differential, fasting lipid panel, QuantiFERON-TB Gold® ([…] Limited, Melbourne, Australia), and screening for HIV and hepatitis B and C. Body surface area (BSA) of depigmentation was assessed prior to and at the end of treatment. Serial laboratory monitoring, physical exams, and review of systems were used to monitor for adverse events.

patients with vitiligo [2] = assay: Adverse event monitoring in the case series (laboratory monitoring, physical exams, review of systems); type: in vivo, human
From the text: as §3

CD8^+ T cells = assay: Suction blister sampling, flow cytometry of CD8+ T cells in blister fluid; type: in vivo, human; conditions: Patient 1; after 10 months of tofacitinib vs baseline; responding, non-responding and non-lesional sites
Method: The Negative Pressure Instrument Model NP-4 (Electronic Diversities®, Finksburg, MD) was used to induce suction blisters (1 cm in diameter). Blisters formed at a pressure between 10-15 mm Hg negative pressure and at a constant temperature of 40° C. Once blisters formed, the blister fluid was aspirated 135 through the roof using a 1 mL insulin syringe. Cells in the blister fluid were pelleted at 330×g for 10 minutes and prepared for flow cytometry. […] Cells were blocked with Human TruStain and incubated with an antibody cocktail for 30 minutes at 4° C. Anti-human CD45 (2D1) and CD8 (SK1) were used at 1:20 dilution. Anti-human CD3 (OKT3) was used at 1:200 dilution (BioLegend) and Fixable Viability Dye eFluor 455UV at 1:1000 (Ebioscience).

CXCL9 = CXCL9 ELISA of blister fluid and serum; type: in vivo, human; conditions: Patient 1; following treatment
Method: (§1) The Negative Pressure Instrument Model NP-4 (Electronic Diversities®, Finksburg, MD) was used to induce suction blisters (1 cm in diameter). Blisters formed at a pressure between […] negative pressure and at a constant temperature of 40° C. Once blisters formed, the blister fluid was aspirated […] through the roof using a 1 mL insulin syringe. Cells in the blister fluid were pelleted at 330×g for 10 minutes and prepared for flow cytometry. The supernatant of the blister fluid was stored at −80° C. until analysis by enzyme-linked immunosorbent-assays (ELISA) for chemokines. None of the blisters were hemorrhagic.
(§2) Chemokines were assayed using the Human CXLC9/MIG DuoSet ELISA (DY392) and Human CXCL10/IP-10 DuoSet ELISA (DY266, R&D Systems) per the manufacturer's instructions. Optical densities were measured using a Perkin Elmer EnVision 2102® multilabel reader and analyzed using a 4 parameter […] standard curve.

CXCL10 = CXCL10 ELISA of blister fluid and serum; type: in vivo, human; conditions: Patient 1; following treatment
Method: as §1, §2

[3] = system: melanocyte-specific T cells (HLA pentamer positive); conditions: Patient 1; after treatment vs baseline
Method: Cells were blocked with Human TruStain and incubated with an antibody cocktail for 30 minutes at 4° C. Anti-human CD45 (2D1) and CD8 (SK1) were used at 1:20 dilution. Anti-human CD3 (OKT3) was used at 1:200 dilution (BioLegend) and Fixable Viability Dye eFluor 455UV at 1:1000 (Ebioscience).

patients with vitiligo [4] = system: patients with vitiligo
[5] = Patient 1, earlier course, 5 mg daily, over 5 months
[6] = Patient 2, 5 mg twice daily, after 8 months
[7] = Patient 3, 5 mg twice daily plus nbUVB 150 mJ every other day, after 11 months
[8] = Patient 4, after 14 months of therapy
[9] = Case 1, 5 mg twice daily plus full-body narrowband UV-B (400-500 mJ) twice weekly, after 3 months
[10] = Cases 1 and 2, at last follow-up

Structure (SMILES): C[C@@H]1CCN(C(=O)CC#N)C[C@@H]1N(C)c1ncnc2[nH]ccc12 [tofacitinib, 3-((3R,4R)-4-methyl-3-(methyl(7H-pyrrolo[2,3-d]pyrimidin-4-yl)amino)piperidin-1-yl)-3-oxopropanenitrile]
- Responder Status (patients with vitiligo [1]; Patient 1): R
- repigmentation at other body sites, including the trunk (patients with vitiligo [1]; [5]): only minimal repigmentation
- repigmentation of face, forearms and dorsal hands (patients with vitiligo [1]; [5]): near complete repigmentation
- repigmentation on re-treatment (patients with vitiligo [1]; Patient 1, 5 mg daily over 6 months, started in late spring): repigmentation of the face, forearms and dorsal hands, and the upper back and shoulders, but not the lower back or other sun-protected body sites
- BSA after to tofacitinib (patients with vitiligo [1]; Patient 1, BSA prior to tofacitinib 10%, treatment duration 10 months): 4%
- course after stopping tofacitinib (patients with vitiligo [1]; Patient 1, tofacitinib stopped for 8 months, areas that had previously responded): depigmentation recurred
- Responder Status (patients with vitiligo [1]; Patient 2): R
- repigmentation of dorsal hands and lower legs (patients with vitiligo [1]; [6]): islands of repigmentation
- repigmentation of face, neck (not submental area) and forearms (patients with vitiligo [1]; [6]): near-complete repigmentation
- sun-protected body sites (patients with vitiligo [1]; [6]): remained unchanged
- repigmentation of face, lateral and posterior neck, and forearms (patients with vitiligo [1]; Patient 2, 5 mg twice daily, over 3 months, sun exposure): partial repigmentation
- BSA after to tofacitinib (patients with vitiligo [1]; Patient 2, BSA prior to tofacitinib 28%, treatment duration 8 months): 24%
- maintenance of repigmentation (patients with vitiligo [1]; Patient 2, while taking tofacitinib during the winter, minimal sunlight exposure): Repigmentation was maintained
- Responder Status (patients with vitiligo [1]; Patient 3): R
- repigmentation of all other body sites (patients with vitiligo [1]; [7]): innumerable islands of repigmentation
- repigmentation of the back (patients with vitiligo [1]; [7]): > 75%
- repigmentation of the face (patients with vitiligo [1]; [7]): complete repigmentation
- BSA after to tofacitinib (patients with vitiligo [1]; Patient 3, BSA prior to tofacitinib 39%, treatment duration 11 months, concomitant nbUVB): 24%
- Responder Status (patients with vitiligo [1]; Patient 4): R
- BSA after to tofacitinib (patients with vitiligo [1]; Patient 4, BSA prior to tofacitinib 10%, treatment duration 14 months): 8%
- repigmentation of hands and sun-protected body sites (patients with vitiligo [1]; [8]): neither the hands nor sun-protected body sites, however, showed evidence of repigmentation
- repigmentation of the face (patients with vitiligo [1]; [8]): near-complete repigmentation
- Responder Status (patients with vitiligo [1]; Patient 5): R
- response of vitiligo to tofacitinib alone (patients with vitiligo [1]; Patient 5, 5-10 mg twice daily for 1 year, before nbUVB, hands disguised with makeup): unresponsive
- BSA after to tofacitinib (patients with vitiligo [1]; Patient 5, BSA prior to tofacitinib 2%, treatment duration 10 months, islands of repigmentation after 12 nbUVB treatments did not change BSA appreciably): 2%*
- repigmentation after adding nbUVB hand phototherapy (patients with vitiligo [1]; Patient 5, concomitant nbUVB, approximately 12 treatments (most recent dose 350 mJ)): islands of repigmentation were apparent
- Responder Status (patients with vitiligo [1]; Patient 6): NR
- BSA after to tofacitinib (patients with vitiligo [1]; Patient 6, BSA prior to tofacitinib 7%, treatment duration 3 months): 7%
- Responder Status (patients with vitiligo [1]; Patient 7): NR
- BSA after to tofacitinib (patients with vitiligo [1]; Patient 7, BSA prior to tofacitinib 1%, treatment duration 9 months): 1%
- Responder Status (patients with vitiligo [1]; Patient 8): NR
- BSA after to tofacitinib (patients with vitiligo [1]; Patient 8, BSA prior to tofacitinib 4%, treatment duration 15 months): 4%
- Responder Status (patients with vitiligo [1]; Patient 9): NR
- BSA after to tofacitinib (patients with vitiligo [1]; Patient 9, BSA prior to tofacitinib 6%, treatment duration 4 months): 6%
- Responder Status (patients with vitiligo [1]; Patient 10): NR
- BSA after to tofacitinib (patients with vitiligo [1]; Patient 10, BSA prior to tofacitinib 100%, treatment duration 11 months): 100%
- mean decrease of BSA involvement with vitiligo (patients with vitiligo [1]; in 5/10 patients, tofacitinib 5-10 mg QD-BID, average 9.5 months): 5.4 % BSA
- overall finding: repigmentation and light exposure (patients with vitiligo [1]; sunlight or nbUVB phototherapy): only led to repigmentation when there was concomitant light exposure
- repigmentation (patients with vitiligo [1]; the other 5 of 10 patients, tofacitinib 5-10 mg QD-BID): did not achieve any repigmentation
- serious adverse events (patients with vitiligo [2]; 10 patients): no serious adverse events
- adverse events overall (patients with vitiligo [2]; in vivo): mild and infrequent
- arthralgias (patients with vitiligo [2]; of 10 patients): one patient reported arthralgias
- mild elevations of lipids (patients with vitiligo [2]; of 10 patients): 4 patients
- upper respiratory infection (most common side effect) (patients with vitiligo [2]; of 10 patients): 2 patients
- weight gain (patients with vitiligo [2]; reported by one patient of 10): 5 pounds
- CD8+ T cell number in blister fluid (CD8^+ T cells): absolute numbers in each site were reduced
- CXCL9 level in blister fluid (CXCL9): undetectable
- CXCL9 level in serum (CXCL9): undetectable
- CXCL10 level in blister fluid (CXCL10): undetectable
- CXCL10 level in serum (CXCL10): undetectable
- percentage of melanocyte-specific T cells (HLA pentamer positive) in PBMCs [3]: did not change with tofacitinib treatment, and even increased slightly
- repigmentation of neck, chest, forearms and shins (patients with vitiligo [4]; [9]): ≥ 75%
- repigmentation of the dorsal hands (patients with vitiligo [4]; [9]): only minimal freckling
- repigmentation of the face (patients with vitiligo [4]; [9]): nearly complete repigmentation
- repigmentation of the face (patients with vitiligo [4]; Case 2, 5 mg twice daily plus narrowband UV-B (360-500 mJ) 2 to 3 times weekly to only the face, after 3 months): about 50%
- facial repigmentation (patients with vitiligo [4]; Case 2, 5 mg twice daily plus narrowband UV-B (360-500 mJ) 2 to 3 times weekly to only the face, after 6 months): about 75%
- repigmentation at the other body sites (no UV-B) (patients with vitiligo [4]; Case 2, 5 mg twice daily, narrowband UV-B to only the face): No repigmentation occurred
- adverse effects (patients with vitiligo [4]; [10]): no adverse effects
- complete blood cell count, liver function tests, serum creatinine, fasting lipids (patients with vitiligo [4]; [10]): no abnormalities
